Data set [1] has as its target T1, D2 (hD2L receptor) (Homo sapiens, UniProt P14416).
T1 construct: purchased BioSignal Packard Inc., Montreal, Canada
Briefly: Radioligand binding assay, dopamine D2. To be noted: [3H] spiperone 1 nM; read-out: Binding affinity IC50 D2. The method, then:
(§1) Radioligand binding assays for dopamine receptor family (D1, D2 and D3) were performed according to the protocols provided by the manufacturer of receptor membranes (BioSignal Packard Inc., Montreal, Canada). The radioligands used were [^3H] spiperone (for hD2L and hD3 receptors, 1 nM) and [^3H] YM-09151-2 (hD4.2 receptor, 0.06 nM). Briefly, the buffer used in the D1, D2 and D3 receptor binding assay was 50 mM Tris-HCl (pH 7.4), containing 10 mM MgCl2 and 1 mM EDTA, or 50 mM Tris-HCl (pH 7.4), containing 5 mM MgCl2, 5 mM EDTA, 5 mM KCl, 1.5 mM CaCl2 and 120 mM NaCl. For [^3H] YM-09151-2 receptor binding assays, 50 mM Tris-HCl (pH 7.4) containing 5 mM MgCl2, 5 mM EDTA, 5 mM KCl and 1.5 mM CaCl2, was used as a buffer. Nonspecific binding was determined with haloperidol (10 μM) for D2 and D3 and clozapine (10 μM) for D4 receptors.
(§2) Competition binding studies were carried out with 7-8 concentrations of the test compound run in duplicate tubes, and isotherms from three assays were calculated by computerized nonlinear regression analysis (GraphPad Prism Program, San Diego, […]) to yield median inhibitory concentration (IC50) values.

Data set [2] has as its target T2, D4 (hD4.2 receptor) (Homo sapiens, UniProt P21917, DEL265-296).
T2 construct: purchased BioSignal Packard Inc., Montreal, Canada
T2 sequence (P21917 with tags, fused parts or gaps DEL265-296): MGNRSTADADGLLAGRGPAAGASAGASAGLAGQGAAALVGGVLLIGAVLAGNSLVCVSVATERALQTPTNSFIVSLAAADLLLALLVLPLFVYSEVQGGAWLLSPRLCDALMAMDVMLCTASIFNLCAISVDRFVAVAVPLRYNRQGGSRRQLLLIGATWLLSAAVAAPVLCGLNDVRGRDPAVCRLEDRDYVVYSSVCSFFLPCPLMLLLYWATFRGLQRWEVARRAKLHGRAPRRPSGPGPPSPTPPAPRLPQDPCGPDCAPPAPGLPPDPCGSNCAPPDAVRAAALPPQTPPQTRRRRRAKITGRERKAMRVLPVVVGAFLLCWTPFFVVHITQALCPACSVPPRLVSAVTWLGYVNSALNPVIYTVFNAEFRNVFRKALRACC
Briefly: Radioligand binding assay, dopamine D4. To be noted: [3H] YM-09151-2 0.06 nM; read-out: Binding affinity IC50 D4. Here is the method: as §1, §2

Data set [3] concerns the target 5-HT7 (human recombinant receptor, CHO-K1) (Homo sapiens, UniProt P34969). Briefly: Radioligand binding assay, 5-HT7.
The target in data set [4] is T3, 5-HT1a (human recombinant receptor, CHO-K1) (Homo sapiens, UniProt P08908).
T3 sequence (P08908 1-422): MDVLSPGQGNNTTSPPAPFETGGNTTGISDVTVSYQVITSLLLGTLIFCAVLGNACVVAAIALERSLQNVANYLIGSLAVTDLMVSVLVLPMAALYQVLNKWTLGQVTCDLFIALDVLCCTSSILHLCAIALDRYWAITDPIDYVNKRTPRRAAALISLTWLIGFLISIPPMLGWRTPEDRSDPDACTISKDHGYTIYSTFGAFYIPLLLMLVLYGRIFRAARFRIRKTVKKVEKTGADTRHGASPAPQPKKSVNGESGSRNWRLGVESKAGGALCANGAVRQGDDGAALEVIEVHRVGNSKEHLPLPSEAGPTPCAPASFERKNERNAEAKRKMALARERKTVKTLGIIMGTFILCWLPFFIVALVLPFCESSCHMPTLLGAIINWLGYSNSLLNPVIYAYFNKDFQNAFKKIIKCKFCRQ
Briefly: Radioligand binding assay, 5-HT1a.

Data set [5] addresses 5-HT2a (human recombinant receptor, CHO-K1) (Homo sapiens, UniProt P28223). Briefly: Radioligand binding assay, 5-HT2a.
Data set [6] deals with T4, 5-HT2c (human recombinant receptor, CHO-K1) (Homo sapiens, UniProt P28335).
T4 sequence (P28335 33-458): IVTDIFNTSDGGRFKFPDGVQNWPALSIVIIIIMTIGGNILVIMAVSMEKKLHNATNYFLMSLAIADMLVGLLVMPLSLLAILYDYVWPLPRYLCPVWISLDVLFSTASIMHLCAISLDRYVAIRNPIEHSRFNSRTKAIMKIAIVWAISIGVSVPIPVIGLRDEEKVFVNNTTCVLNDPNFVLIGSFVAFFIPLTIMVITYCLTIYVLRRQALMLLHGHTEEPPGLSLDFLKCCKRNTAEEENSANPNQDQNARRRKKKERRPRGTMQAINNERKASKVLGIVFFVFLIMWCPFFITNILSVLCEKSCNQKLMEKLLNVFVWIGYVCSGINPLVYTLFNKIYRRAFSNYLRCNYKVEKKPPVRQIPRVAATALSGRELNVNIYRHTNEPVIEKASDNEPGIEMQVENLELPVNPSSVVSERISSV
Briefly: Radioligand binding assay, 5-HT2c.

In data set [7] the target is D3 (hD3 receptor) (Homo sapiens, UniProt P35462). Briefly: Radioligand binding assay, dopamine D3.
Sequence of D3 (hD3 receptor) (P35462 whole entry): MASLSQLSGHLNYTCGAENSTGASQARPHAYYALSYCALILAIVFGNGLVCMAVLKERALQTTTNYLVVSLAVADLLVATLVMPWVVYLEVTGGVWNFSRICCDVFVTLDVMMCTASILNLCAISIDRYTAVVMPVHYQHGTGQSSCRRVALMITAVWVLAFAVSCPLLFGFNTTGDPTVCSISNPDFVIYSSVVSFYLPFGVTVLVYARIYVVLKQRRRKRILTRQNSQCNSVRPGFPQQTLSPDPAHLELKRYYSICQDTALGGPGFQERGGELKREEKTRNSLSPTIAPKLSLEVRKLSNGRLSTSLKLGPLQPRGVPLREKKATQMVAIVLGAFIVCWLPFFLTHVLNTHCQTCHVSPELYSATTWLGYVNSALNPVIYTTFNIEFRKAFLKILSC
Data set [8] concerns the target human serotonin 5-HT6 receptor (Homo sapiens, UniProt P50406). Briefly: [3H]LSD binding assay for cloned 5-HT6 receptors.

Here are results for 13 molecules from patent US20090203708A1, “NOVEL SUBSTITUTED-1-H-QUINAZOLINE-2,4-DIONE DERIVATIVES, PREPARATION METHOD THEREOF AND PHARMACEUTICAL COMPOSITION CONTAINING THE SAME” (Korea Research Institute of Chemical Technology, priority 2006, published 2009).

The IC50 is the concentration that gives 50% inhibition. As usually defined, the melting point is the temperature of the solid-liquid transition.

Sequence of human serotonin 5-HT6 receptor (P50406 whole entry): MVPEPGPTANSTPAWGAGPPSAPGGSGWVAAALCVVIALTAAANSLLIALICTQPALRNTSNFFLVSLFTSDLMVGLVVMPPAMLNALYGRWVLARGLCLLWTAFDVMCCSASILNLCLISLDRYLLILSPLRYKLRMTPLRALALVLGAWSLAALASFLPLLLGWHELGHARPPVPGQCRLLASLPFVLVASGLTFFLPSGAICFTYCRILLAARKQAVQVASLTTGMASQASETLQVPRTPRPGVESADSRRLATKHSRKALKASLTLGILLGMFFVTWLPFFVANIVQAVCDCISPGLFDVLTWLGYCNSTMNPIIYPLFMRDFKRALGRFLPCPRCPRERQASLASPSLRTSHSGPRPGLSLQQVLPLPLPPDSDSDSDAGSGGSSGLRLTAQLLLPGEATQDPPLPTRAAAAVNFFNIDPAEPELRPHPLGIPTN
Sequence of 5-HT2a (human recombinant receptor, CHO-K1) (P28223 whole entry): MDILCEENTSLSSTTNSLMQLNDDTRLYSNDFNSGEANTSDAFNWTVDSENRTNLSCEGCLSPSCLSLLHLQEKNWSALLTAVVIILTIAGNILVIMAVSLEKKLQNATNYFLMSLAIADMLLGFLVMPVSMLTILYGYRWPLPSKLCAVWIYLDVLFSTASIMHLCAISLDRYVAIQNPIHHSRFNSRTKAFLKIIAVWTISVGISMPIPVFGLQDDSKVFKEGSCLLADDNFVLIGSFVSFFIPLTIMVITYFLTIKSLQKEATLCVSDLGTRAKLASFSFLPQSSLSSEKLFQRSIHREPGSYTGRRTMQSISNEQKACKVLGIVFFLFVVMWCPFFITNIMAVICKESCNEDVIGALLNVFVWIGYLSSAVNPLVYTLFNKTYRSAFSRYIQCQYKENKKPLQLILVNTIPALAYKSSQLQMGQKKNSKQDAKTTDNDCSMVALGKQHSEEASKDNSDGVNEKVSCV
Sequence of 5-HT7 (human recombinant receptor, CHO-K1) (P34969 whole entry): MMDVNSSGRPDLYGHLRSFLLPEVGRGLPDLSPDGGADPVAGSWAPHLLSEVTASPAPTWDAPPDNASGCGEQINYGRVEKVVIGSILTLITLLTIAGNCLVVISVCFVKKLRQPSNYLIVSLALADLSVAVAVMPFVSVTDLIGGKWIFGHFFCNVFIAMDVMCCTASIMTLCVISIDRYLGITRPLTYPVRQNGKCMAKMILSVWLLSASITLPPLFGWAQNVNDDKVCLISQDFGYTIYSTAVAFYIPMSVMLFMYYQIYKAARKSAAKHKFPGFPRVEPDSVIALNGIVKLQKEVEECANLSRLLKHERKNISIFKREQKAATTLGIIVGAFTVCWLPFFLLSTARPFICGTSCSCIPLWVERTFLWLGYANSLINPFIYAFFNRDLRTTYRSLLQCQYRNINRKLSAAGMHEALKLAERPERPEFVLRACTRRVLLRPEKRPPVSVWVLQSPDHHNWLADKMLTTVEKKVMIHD
T1 sequence (P14416 whole entry): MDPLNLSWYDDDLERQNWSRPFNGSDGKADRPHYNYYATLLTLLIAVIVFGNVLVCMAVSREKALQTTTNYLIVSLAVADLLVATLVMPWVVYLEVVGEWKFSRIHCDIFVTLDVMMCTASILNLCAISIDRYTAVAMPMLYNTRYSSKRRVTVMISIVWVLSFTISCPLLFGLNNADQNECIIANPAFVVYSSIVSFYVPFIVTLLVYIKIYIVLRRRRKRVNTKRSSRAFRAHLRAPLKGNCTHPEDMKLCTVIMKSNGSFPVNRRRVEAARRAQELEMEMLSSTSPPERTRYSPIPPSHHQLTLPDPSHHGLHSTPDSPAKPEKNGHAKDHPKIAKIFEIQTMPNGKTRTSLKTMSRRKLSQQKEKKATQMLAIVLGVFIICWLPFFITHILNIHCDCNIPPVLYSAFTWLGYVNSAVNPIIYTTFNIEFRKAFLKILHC

In the case of `CCCn1c(=O)c2c(N3CCN(C)CC3)cc(Cl)cc2n(Cc2ccccc2)c1=O` [Example 3, 1-benzyl-7-chloro-5-(4-methyl-piperazin-1-yl)-3-propyl-1H-quinazoline-2,4-dione], the melting point was in the range of 120 to 121 °C. Further, the IC50 in data set [1] was more than 10000 nM. Further, in [2], the 50% inhibitory concentration (IC50) was more than 10000 nM. In addition, in data set [3], the IC50 is more than 10000 nM. The IC50 in [4] was more than 10000 nM. For the same molecule, the IC50 in data set [5] was 718 nM. The half-maximal inhibitory concentration (IC50) in [6] was determined as 3760 nM. For the same molecule, in data set [7], the concentration for half-maximal inhibition (IC50) was 2110 nM. The molecule further displayed a 50% inhibitory concentration (IC50) in data set [8] of 2 nM.
`CCCCCCCCn1c(=O)c2c(N3CCN(C)CC3)cc(Cl)cc2n(Cc2ccccc2)c1=O` [Example 7, 1-benzyl-7-chloro-5-(4-methyl-piperazin-1-yl)-3-octyl-1H-quinazoline-2,4-dione] yielded a melting point of 78 to 80 °C. Besides, the half-maximal inhibitory concentration (IC50) in data set [1] is 2760 nM. Moreover, the half-maximal inhibitory concentration (IC50) in data set [2] is more than 10000 nM. Further, the IC50 in data set [3] was 2560 nM. The half-inhibitory concentration (IC50) in data set [4] came to 2160 nM. Also, in data set [5], the IC50 came to 1140 nM. Besides, the concentration for half-maximal inhibition (IC50) in [6] came out at 1710 nM. In data set [7], this molecule gave an IC50 of 606 nM. Further, the half-inhibitory concentration (IC50) in data set [8] came out at 1.5 nM.
`CN1CCN(c2cc(Cl)cc3c2c(=O)n(Cc2ccccc2F)c(=O)n3Cc2ccccc2)CC1` [Example 11, 1-benzyl-7-chloro-3-(2-fluoro-benzyl)-5-(4-methyl-piperazin-1-yl)-1H-quinazoline-2,4-dione] returned a melting point of 147 to 149 °C. Further, the concentration for half-maximal inhibition (IC50) in data set [1] was more than 10000 nM. The IC50 in [2] is more than 10000 nM. In addition, the concentration for half-maximal inhibition (IC50) in [3] is 4840 nM. The IC50 in data set [4] came out at 1510 nM. The 50% inhibitory concentration (IC50) in data set [5] is 463 nM. The IC50 in [6] came out at 176 nM. This molecule yielded a 50% inhibitory concentration (IC50) in data set [7] of 2660 nM. In addition, in data set [8], the concentration for half-maximal inhibition (IC50) was 1.2 nM.
In turn, `CN1CCN(c2cc(Cl)cc3c2c(=O)n(Cc2cccc(F)c2)c(=O)n3Cc2ccccc2)CC1` [Example 12, 1-benzyl-7-chloro-3-(3-fluoro-benzyl)-5-(4-methyl-piperazin-1-yl)-1H-quinazoline-2,4-dione] gave a melting point of 148 to 150 °C. Moreover, the half-inhibitory concentration (IC50) in data set [1] was more than 10000 nM. In data set [2], the IC50 is more than 10000 nM. In addition, in [3], the concentration for half-maximal inhibition (IC50) came out at 1670 nM. Besides, in data set [4], the IC50 was determined as 718 nM. The IC50 in data set [5] came to 622 nM. In data set [6], the half-inhibitory concentration (IC50) is 1060 nM. In addition, the IC50 in data set [7] was 490 nM. In addition, in [8], the half-inhibitory concentration (IC50) stood at 1.9 nM.
`CN1CCN(c2cc(Cl)cc3c2c(=O)n(Cc2ccccc2Br)c(=O)n3Cc2ccccc2)CC1` [Example 14, 1-benzyl-3-(2-bromo-benzyl)-7-chloro-5-(4-methyl-piperazin-1-yl)-1H-quinazoline-2,4-dione] yielded a melting point of 91 to 93 °C. Also, the concentration for half-maximal inhibition (IC50) in data set [1] is 3320 nM. Besides, in data set [2], the IC50 was more than 10000 nM. For the same molecule, the half-maximal inhibitory concentration (IC50) in data set [3] worked out at 5940 nM. Besides, the concentration for half-maximal inhibition (IC50) in data set [4] is 1080 nM. Besides, the half-inhibitory concentration (IC50) in data set [5] worked out at 394 nM. For the same molecule, the half-maximal inhibitory concentration (IC50) in data set [6] was found to be 728 nM. In addition, the concentration for half-maximal inhibition (IC50) in data set [7] came out at 480 nM. This molecule showed an IC50 in [8] of 0.9 nM.
Consider `CN1CCN(c2cc(Cl)cc3c2c(=O)n(Cc2ccccc2Cl)c(=O)n3Cc2ccccc2)CC1` [Example 17, 1-benzyl-7-chloro-3-(2-chloro-benzyl)-5-(4-methyl-piperazin-1-yl)-1H-quinazoline-2,4-dione], for which the melting point was 87 to 92 °C. Further, the IC50 in [1] is more than 10000 nM. For the same molecule, in data set [2], the 50% inhibitory concentration (IC50) is more than 10000 nM. In addition, the IC50 in [3] amounted to 2180 nM. Also, in data set [4], the IC50 was determined as 3280 nM. In addition, in [5], the concentration for half-maximal inhibition (IC50) amounted to 169 nM. Further, the IC50 in [6] amounted to 512 nM. Besides, the IC50 in data set [7] was 138 nM. In data set [8], the IC50 worked out at 0.5 nM.
Turning to `CN1CCN(c2cc(Cl)cc3c2c(=O)n(Cc2cccc(Cl)c2)c(=O)n3Cc2ccccc2)CC1` [Example 18, 1-benzyl-7-chloro-3-(3-chloro-benzyl)-5-(4-methyl-piperazin-1-yl)-1H-quinazoline-2,4-dione], the melting point lay in the range of 165 to 169 °C. Moreover, in [1], the half-inhibitory concentration (IC50) worked out at 7320 nM. In addition, the IC50 in [2] was more than 10000 nM. Further, in [3], the IC50 worked out at 1880 nM. For the same molecule, the half-inhibitory concentration (IC50) in data set [4] stood at 1780 nM. In addition, the IC50 in [5] came out at 1380 nM. Also, the IC50 in [6] came to 748 nM. In data set [7], this molecule registered a half-maximal inhibitory concentration (IC50) of 339 nM. Further, the IC50 in [8] was 2.1 nM.
The molecule `CN1CCN(c2cc(Cl)cc3c2c(=O)n(Cc2ccc(Cl)cc2)c(=O)n3Cc2ccccc2)CC1` [Example 19, 1-benzyl-7-chloro-3-(4-chloro-benzyl)-5-(4-methyl-piperazin-1-yl)-1H-quinazoline-2,4-dione] showed a melting point of 92 to 97 °C. Also, in data set [1], the concentration for half-maximal inhibition (IC50) worked out at 7740 nM. Further, the IC50 in data set [2] was more than 10000 nM. Moreover, the IC50 in data set [3] is 2210 nM. Further, in data set [4], the IC50 amounted to 3060 nM. Further, the IC50 in data set [5] was found to be 1100 nM. Also, the IC50 in data set [6] was determined as 321 nM. This molecule also displayed a half-inhibitory concentration (IC50) in data set [7] of 1010 nM. In data set [8], this molecule returned an IC50 of 3.1 nM.
As to `O=c1c2c(N3CCNCC3)cc(Cl)cc2n(Cc2ccccc2)c(=O)n1Cc1ccccc1` [Example 57, 1,3-dibenzyl-7-chloro-5-piperazin-1-yl-1H-quinazoline-2,4-dione], the melting point lay in the range of 115 to 123 °C. The same molecule came in with an IC50 in data set [8] of 3.4 nM.
For `COc1ccccc1Cn1c(=O)c2c(N3CCNCC3)cc(Cl)cc2n(Cc2ccccc2)c1=O` [Example 63, 1-benzyl-7-chloro-3-(2-methoxy-benzyl)-5-piperazin-1-yl-1H-quinazoline-2,4-dione] the same measures were 122 to 125 °C and 2.3 nM.
For `COc1cccc(Cn2c(=O)c3c(N4CCNCC4)cc(Cl)cc3n(Cc3ccccc3)c2=O)c1` [Example 64, 1-benzyl-7-chloro-3-(3-methyoxy-benzyl)-5-piperazin-1-yl-1H-quinazoline-2,4-dione] the same measures were 124 to 130 °C and 6.4 nM.
For `O=c1c2c(N3CCNCC3)cc(Cl)cc2n(Cc2ccccc2)c(=O)n1Cc1ccccc1O` [Example 65, 1-benzyl-7-chloro-3-(2-hydroxy-benzyl)-5-piperazin-1-yl-1H-quinazoline-2,4-dione] the same measures were 113 to 130 °C and 5.9 nM.
As to `O=c1c2c(N3CCNCC3)cc(Cl)cc2n(Cc2ccccc2)c(=O)n1Cc1ccccc1[N+](=O)[O-]` [Example 66, 1-benzyl-7-chloro-3-(2-nitro-benzyl)-5-piperazin-1-yl-1H-quinazoline-2,4-dione], the melting point lay within 129 to 134 °C. For the same molecule, in data set [8], the IC50 is 5.7 nM.
